According to publication PMC7307906, “Macrocyclic Modalities Combining Peptide Epitopes and Natural Product Fragments” (Journal of the American Chemical Society, 2020):

Tests used:
[1] = biological target: T1, human MC1R (Homo sapiens, UniProt Q01726); experiment: Melanocortin receptor radioligand binding (SPA, [125I]-NDP-α-MSH displacement), MC1R; conditions: competitive binding, mean (± SEM) of at least three independent experiments, read-out: IC50 hMC1R binding
T1 construct: expressed in transfected cells
T1 sequence (Q01726 whole entry): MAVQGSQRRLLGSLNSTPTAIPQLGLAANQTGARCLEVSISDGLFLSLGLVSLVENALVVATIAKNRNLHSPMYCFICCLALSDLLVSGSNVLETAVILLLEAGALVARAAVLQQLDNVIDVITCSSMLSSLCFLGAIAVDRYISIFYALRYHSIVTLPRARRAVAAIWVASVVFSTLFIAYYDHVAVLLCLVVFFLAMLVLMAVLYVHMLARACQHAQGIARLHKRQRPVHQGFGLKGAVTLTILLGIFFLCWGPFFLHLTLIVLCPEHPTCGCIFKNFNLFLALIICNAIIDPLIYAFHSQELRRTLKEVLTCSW

[2] = biological target: T2, human MC3R (Homo sapiens, UniProt P41968); experiment: Melanocortin receptor radioligand binding (SPA, [125I]-NDP-α-MSH displacement), MC3R; conditions: competitive binding, mean (± SEM) of at least three independent experiments, read-out: IC50 hMC3R binding
T2 construct: expressed in transfected cells
T2 sequence (P41968 whole entry): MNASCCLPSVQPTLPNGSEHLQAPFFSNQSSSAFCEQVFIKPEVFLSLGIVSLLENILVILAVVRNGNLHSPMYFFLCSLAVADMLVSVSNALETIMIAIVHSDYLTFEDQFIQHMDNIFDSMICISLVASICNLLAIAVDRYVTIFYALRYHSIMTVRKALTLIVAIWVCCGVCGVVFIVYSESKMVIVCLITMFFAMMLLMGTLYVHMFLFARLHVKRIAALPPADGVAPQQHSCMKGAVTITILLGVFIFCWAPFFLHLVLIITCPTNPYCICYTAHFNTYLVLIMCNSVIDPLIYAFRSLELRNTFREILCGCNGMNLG

[3] = biological target: T3, human MC4R (Homo sapiens, UniProt P32245); experiment: Melanocortin receptor radioligand binding (SPA, [125I]-NDP-α-MSH displacement), MC4R; conditions: competitive binding, mean (± SEM) of at least three independent experiments, read-out: IC50 hMC4R binding
T3 construct: expressed in transfected cells
T3 sequence (P32245 whole entry): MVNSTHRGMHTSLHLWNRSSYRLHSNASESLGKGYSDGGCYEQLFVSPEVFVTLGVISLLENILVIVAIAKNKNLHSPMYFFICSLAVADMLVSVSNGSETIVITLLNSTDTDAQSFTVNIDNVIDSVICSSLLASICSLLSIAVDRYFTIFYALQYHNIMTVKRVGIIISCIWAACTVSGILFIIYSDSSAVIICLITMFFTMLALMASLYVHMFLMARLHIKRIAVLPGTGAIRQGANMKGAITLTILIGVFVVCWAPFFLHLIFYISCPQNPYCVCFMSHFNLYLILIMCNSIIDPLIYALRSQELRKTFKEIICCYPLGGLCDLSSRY

[4] = biological target: T4, human MC5R (Homo sapiens, UniProt P33032); experiment: Melanocortin receptor radioligand binding (SPA, [125I]-NDP-α-MSH displacement), MC5R; conditions: competitive binding, [125I]-NDP-α-MSH; mean (± SEM) of at least three independent experiments; read-out: IC50 hMC5R binding
T4 construct: expressed in transfected cells; host or cells: HEK293-6E suspension cells, transient expression; membranes
T4 sequence (P33032 whole entry): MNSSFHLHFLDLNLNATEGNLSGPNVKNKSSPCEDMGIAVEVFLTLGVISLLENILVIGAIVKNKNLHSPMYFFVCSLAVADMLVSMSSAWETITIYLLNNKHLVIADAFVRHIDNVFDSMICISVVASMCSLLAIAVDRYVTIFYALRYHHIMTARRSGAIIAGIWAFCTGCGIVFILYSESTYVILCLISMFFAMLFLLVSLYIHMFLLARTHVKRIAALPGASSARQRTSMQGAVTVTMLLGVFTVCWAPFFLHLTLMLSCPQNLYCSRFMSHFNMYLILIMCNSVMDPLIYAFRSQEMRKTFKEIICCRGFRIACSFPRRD

[5] = biological target: T2, human MC3R; experiment: cAMP assay (LANCE) in T-Rex-293 cells expressing MC3R; format: cell-based; conditions: cAMP assay; mean (± SEM) of at least three independent experiments; read-out: EC50 hMC3R cAMP
[6] = biological target: hMC1−5R; experiment: Melanocortin receptor radioligand binding, result stated for all receptors together; design: species or system human
Source text: Example concentration response curves for selected PepNats in MC1R, MC3R, MC4R, MC5R radioligand binding assays and MC1R, MC3R, MC4R cAMP assays. Responses were normalized to reference agonist NDP -α-MSH and presented as % effect of control, with full competition in binding defined as -100% and full agonism in cAMP assays defined as […]
binding assay. Threshold to define a compound as active was set to -30% in binding assays and 20% in cAMP assays respectively. Data are from at least three independent experiments and error bars represent ± Standard Error of the […]
% s p e c ific b in d in g o f
(1 picture or pasted object on this page, not shown here) […]
expression, MC1R and MC4R transfected cells were treated with 0.1 ng /mL and MC3R transfected cells with 10 ng/mL doxycyclin, for 24 h before assay.
Melanocortin receptor radioligand binding and cAMP assays.
Binding and cAMP assays were performed as described by Durek et al.7 “A 384-well format scintillation proximity assay (SPA) was used to identify compounds that show competitive binding to the human Melanocortin receptor 1,3,4 or 5 ligand binding domain (LBD). […] The inhibition of the scintillation signal by displacement of [ 125I]- NDP-α-MSH by test compounds were detected by a 1450 MicroBeta Trilux scintillation counter […]
Plates were incubated for 16-23 h in the dark at room temperature before reading on a 1450 […]
Measurements of cAMP production were performed using LANCE® cAMP kits (PerkinElmer) in a total assay volume of 12 µl/well. […] The reaction was stopped with detection buffer containing 10 µM Biotin-cAMP and 15 µM LANCE Eu-W8044 labelled streptavidin (PerkinElmer LANCE cAMP kit). cAMP production was detected by homogenous time resolved fluorescence (HTRF) (λex = 340 nm, λem = 665 and 615 nm) using a Pherastar (BMG Labtech).
PepNats, literature compounds and references were tested in ten-point concentration response (½ log serial dilution) with 100, 10 or 1 µM as final start concentrations. Raw data output was analyzed in Screener software (Genedata AG) and pEC50 and pIC50 values calculated using a four-

IC50 [1]: > 100 µM | IC50 [2]: > 100 µM | IC50 [3]: > 100 µM | IC50 [4]: > 100 µM | EC50 [5]: > 100 µM | IC50 ([6]; competitive binding, one bound printed for all receptors): > 100 µM | binding to the MC receptors (in words) ([6]; human MC receptors, radioligand binding): did not bind to any of the receptors
SMILES: CN1C(=O)[C@H]2N[C@@H](c3ccc(cc3)C(=O)NCCCC[C@@H](C(=O)N[C@@H](Cc3ccc(O)cc3)C(N)=O)NC(=O)[C@H](CC(N)=O)NC(=O)[C@@H](Cc3ccccc3)NC(=O)[C@@H](Cc3ccccc3)NC(=O)[C@H](CCCNC(=N)N)NC(=O)[C@@H]1Cc1ccccc1)[C@H]1C(=O)N(c3ccccc3)C(=O)[C@H]12 [K1-minor, [II-FRffNK ]Y]
